According to patent US20260184715A1, “NOVEL PYRROLO[1,2-d][1,2,4] TRIAZINONE DERIVATIVES AS NEGATIVE ALLOSTERIC MODULATORS OF MGLU7 RECEPTORS” (Neurosterix Pharma Sarl., priority 2022, published 2026):

Target: T1, human metabotropic glutamate 7 receptor (hmGlu7) (Homo sapiens, UniProt Q14831)
T1 construct: expressed in transfected cells
Test: mGlu7 assay on HEK-expressing human mGlu7: fluorescent cell based-Ca2+ mobilization assay (FLIPR), inhibition of EC80 L-AP4 response
Conditions: HEK-293 cells expressing hmGlu7, EC80 L-AP4; mean of at least three independent experiments in duplicate; read-out: Ca^2+ Flux (mean IC50)
Text: mGlu7 Assay on HEK-Expressing Human mGLU7
The cDNA encoding the human metabotropic glutamate 7 receptor (hmGlu7), (accession number NM_181874.2, NCBI Nucleotide database browser), was subcloned into an expression vector containing also the hygromycin resistance gene. In parallel, the cDNA encoding a G protein allowing redirection of the activation signal to intracellular calcium flux was subcloned into a different expression vector containing also the Puromycin resistance gene. Transfection of both these vectors into HEK293 cells with PolyFect reagent (Qiagen) according to supplier's protocol, and hygromycin and puromycin treatment allowed selection of antibiotic resistant cells which had integrated stably one or more copies of the plasmids. Positive cellular clones expressing hmGlu7 were identified in a functional assay measuring changes in calcium fluxes in response to glutamate and L-AP4 or known mGlu7 orthosteric antagonists.
HEK-293 cells expressing hmGlu7 were maintained in media containing DMEM, Fetal Bovine Serum (10%), GlutaMAX™ (2 mM), penicillin (100 units/mL), streptomycin (100 μg/mL), geneticin (100 μg/mL) and hygromycin-B (40 μg/mL) and puromycin (1 μg/mL) at 37° C. with 5% CO2 in a humidified atmosphere.
Human mGlu7 HEK-293 cells were plated out 24 hours prior to a fluorescent cell-based calcium mobilization assay using FLIPR^384 assay (Molecular Device, Sunnyvale, CA, USA) in black-walled, clear-bottomed, poly-L-ornithine-coated 384-well plates at a density of 25,000 cells/well in a glutamine/glutamate free DMEM medium containing fetal bovine serum (10%), penicillin (100 units/mL), streptomycin (100 μg/mL) and doxycyline (1 μg/ml) at 37° C. with 5% CO2 in a humidified atmosphere.
On the day of the assay, the medium was aspirated and the cells were loaded with a 3 μM solution of Fluo4-AM (LuBioScience, Lucerne, Switzerland) in 0.03% pluronic acid. After 1 hour at 37° C./5% CO2, the non incorporated dye was removed by washing cell plate with the assay buffer. All assays were performed in a pH 7.4 buffered-Solution containing 20 mM HEPES, 143 mM NaCl, 6 mM KCl, 1 mM MgSO4, 1 mM CaCl2, 0.125 mM sulfinpyrazone and 0.1% glucose.
After 10 s of basal fluorescence recording, various concentrations of the compounds of the invention were added to the cells. Changes in fluorescence levels were first monitored for 180 s in order to detect any agonist activity of the compounds. Then the cells were stimulated by an EC80 L-AP4 concentration for an additional 110 s in order to measure inhibiting activities of the compounds of the invention. EC80 L-AP4 concentration is the concentration giving 80% of the maximal glutamate response.
The concentration-response curves of L-AP4 or representative compounds of the present invention were generated using the Prism GraphPad software (Graph Pad Inc, San Diego, USA). The curves were fitted to a four-parameter logistic equation:
(Y=Bottom+(Top−Bottom)/(1+10^((Log IC50−X)*Hill Slope)
allowing determination of IC50 values.
The Table 3 below represents the mean IC50 obtained from at least three independent experiments of selected molecules performed in duplicate.

T1 sequence (Q14831 35-922 isoform Q14831-2 limits assumed): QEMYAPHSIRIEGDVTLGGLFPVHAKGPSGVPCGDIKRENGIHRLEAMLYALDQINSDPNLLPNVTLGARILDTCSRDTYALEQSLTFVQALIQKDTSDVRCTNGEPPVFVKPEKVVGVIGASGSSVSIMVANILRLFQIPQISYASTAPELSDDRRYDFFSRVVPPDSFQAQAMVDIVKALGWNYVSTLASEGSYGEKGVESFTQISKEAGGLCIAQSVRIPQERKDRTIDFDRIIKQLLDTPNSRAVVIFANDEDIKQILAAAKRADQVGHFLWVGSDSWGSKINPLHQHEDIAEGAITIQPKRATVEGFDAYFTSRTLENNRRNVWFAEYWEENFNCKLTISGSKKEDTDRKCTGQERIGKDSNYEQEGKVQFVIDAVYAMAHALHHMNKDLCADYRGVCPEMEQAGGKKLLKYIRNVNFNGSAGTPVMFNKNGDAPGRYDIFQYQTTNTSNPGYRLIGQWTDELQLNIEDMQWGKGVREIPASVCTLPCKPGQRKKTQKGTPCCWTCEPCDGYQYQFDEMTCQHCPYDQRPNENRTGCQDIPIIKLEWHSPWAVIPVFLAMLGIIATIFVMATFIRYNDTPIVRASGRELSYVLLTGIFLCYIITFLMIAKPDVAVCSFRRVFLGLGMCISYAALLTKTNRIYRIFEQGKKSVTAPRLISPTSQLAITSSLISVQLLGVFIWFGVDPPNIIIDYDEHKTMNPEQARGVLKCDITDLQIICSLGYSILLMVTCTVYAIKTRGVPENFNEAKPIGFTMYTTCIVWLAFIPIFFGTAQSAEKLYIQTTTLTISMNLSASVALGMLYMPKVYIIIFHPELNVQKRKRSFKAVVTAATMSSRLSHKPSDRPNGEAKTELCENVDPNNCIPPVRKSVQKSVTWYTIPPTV

| Compound | IC50 [nM] |
| --- | --- |
| Cc1c(-c2cccc(N3CCC3)c2)c(C)n2c(=O)n(-c3ccccn3)ncc12 [1-3, 7-[3-(azetidin-1-yl)phenyl]-6,8-dimethyl-3-(2-pyridyl)pyrrolo[1,2-d][1,2,4]triazin-4-one] | < 100 |
| COc1ccc(F)c(-c2cc3cnn(-c4ncccn4)c(=O)n3c2C)c1 [1-105] | 100 to 1000 |
| Cc1c(-c2cccc(OC3CC3)c2Cl)cc2cnn(-c3ncccn3)c(=O)n12 [1-110] | < 100 |
| Cc1ccc(N2CCC2)cc1-c1c(C)c2cnn(-c3ccccn3)c(=O)n2c1C [1-16] | 100 to 1000 |
| Cc1c(-c2cccc(N3CCC3)c2)c(C)n2c(=O)n(-c3ccc(CCO)cn3)ncc12 [1-11] | 1000 to 10000 |
| COc1cccc(-c2c(Br)c3cnn(-c4ccccn4)c(=O)n3c2C)c1F [1-115, 8-bromo-7-(2-fluoro-3-methoxy-phenyl)-6-methyl-3-(2-pyridyl)pyrrolo[1,2-d][1,2,4]triazin-4-one] | 100 to 1000 |
| COc1nccc(-c2cc3cnn(-c4ncccn4)c(=O)n3c2C)c1F [1-117] | < 100 |
| Cc1c(-c2cccc(OC3CC3)c2)cc2cnn(-c3ccccn3)c(=O)n12 [1-83] | 1000 to 10000 |
| COc1cnc(-n2ncc3c(C)c(-c4cccc(N5CCC5)c4)c(C)n3c2=O)nc1 [1-25] | < 100 |
| COc1nccc(-c2cc3cnn(-c4ccccn4)c(=O)n3c2C)c1F [1-116] | 100 to 1000 |
| Cc1c(-c2cccc3c2CCN3C2CC2)cc2cnn(-c3ncccn3)c(=O)n12 [1-67] | 100 to 1000 |
| COc1cccc(-c2c(C)c3cnn(-c4ncccn4)c(=O)n3c2C)c1C [1-95] | 100 to 1000 |
| COc1cc(-c2cc3cnn(-c4ncccn4)c(=O)n3c2C)ccc1F [1-111] | < 100 |
| COc1ccc(-c2c(C)c3cnn(-c4ncccn4)c(=O)n3c2C)cn1 [1-132] | < 100 |
| Cc1c(-c2cccc(OC(F)(F)F)c2)c(C)n2c(=O)n(-c3ncc(F)cn3)ncc12 [1-60] | 100 to 1000 |
| COc1cnc(-n2ncc3c(C)c(-c4ccc(C)cc4C)c(C)n3c2=O)nc1 [1-46] | 100 to 1000 |
| Cc1c(-c2cccc(OC(F)F)c2)c(C)n2c(=O)n(-c3ccccn3)ncc12 [1-37] | < 100 |
| Cc1c(-c2cccc(N3CCC3)c2)c(C)n2c(=O)n(-c3ccc(C(C)(C)O)cn3)ncc12 [1-24, 7-[3-(azetidin-1-yl)phenyl]-3-[5-(1-hydroxy-1-methyl-ethyl)-2-pyridyl]-6,8-dimethyl-pyrrolo[1,2-d][1,2,4]triazin-4-one] | < 100 |
| COc1cccc(-c2cc3cnn(-c4ccccn4)c(=O)n3c2C)c1Cl [1-73] | < 100 |
| Cc1c(-c2cccc(N3CCC3)c2)c(C)n2c(=O)n(-c3ncc(N)cn3)ncc12 [1-44] | < 100 |

| Compound | IC50 [nM] |
| --- | --- |
| Cc1c(-c2cccc(OC(F)F)c2)cc2cnn(-c3ccccn3)c(=O)n12 [1-70] | 100 to 1000 |
| Cc1c(-c2cccc(OC3CC3)c2)c(C)n2c(=O)n(-c3ccccn3)ncc12 [1-20] | < 100 |
| Cc1c(-c2cccc(N3CCC3)c2)c(C)n2c(=O)n(C3CCOCC3)ncc12 [1-5] | 100 to 1000 |
| Cc1c(-c2cccc3c2CCN3C(C)C)cc2cnn(-c3ncccn3)c(=O)n12 [1-68] | < 100 |
| COc1cccc(-c2cc3cnn(-c4ncccn4)c(=O)n3c2C)c1 [1-61] | 100 to 1000 |
| Cc1c(-c2cccc(OC3CC3)c2F)cc2cnn(-c3ccccn3)c(=O)n12 [1-109] | < 100 |
| Cc1c(-c2cccc3c2CC(=O)N3C)cc2cnn(-c3ccccn3)c(=O)n12 [1-78] | < 100 |
| Cc1cnc(-n2ncc3c(C)c(-c4cccc(OC5CC5)c4)c(C)n3c2=O)nc1 [1-50] | 100 to 1000 |
| COc1ccc(-c2c(C)c3cnn(-c4ncccn4)c(=O)n3c2C)cc1 [1-122] | 100 to 1000 |
| COCCNc1ccc(-n2ncc3c(C)c(-c4cccc(N5CCC5)c4)c(C)n3c2=O)nc1 [1-35] | 100 to 1000 |
| Cc1c(-c2cccc3c2CCN3C2CC2)cc2cnn(-c3ccccn3)c(=O)n12 [1-65] | < 100 |
| Cc1cnc(-n2ncc3c(C)c(-c4cccc(OC5CC5)c4C)c(C)n3c2=O)nc1 [1-52] | 100 to 1000 |
| Cc1c(-c2cccc(N3CCC3)c2)c(C)n2c(=O)n(C)ncc12 [1-12] | 100 to 1000 |
| Cc1c(-c2cccc(N3CCC3)c2)c(C)n2c(=O)n(C3CC3)ncc12 [1-33] | 100 to 1000 |
| Cc1c(OC2CC2)cccc1-c1c(C)c2cnn(-c3ccc(F)cn3)c(=O)n2c1C [1-54] | 100 to 1000 |
| Cc1c(-c2cccc3c2CCN3C2CC2)c(C)n2c(=O)n(-c3ncccn3)ncc12 [1-99] | 100 to 1000 |
| COc1cccc(-c2cc3cnn(-c4ccccn4)c(=O)n3c2C)c1F [1-108] | 100 to 1000 |
| CCn1ncc2c(C)c(-c3cccc(N4CCC4)c3)c(C)n2c1=O [1-10, 7-[3-(azetidin-1-yl)phenyl]-3-ethyl-6,8-dimethyl-pyrrolo[1,2-d][1,2,4]triazin-4-one] | 100 to 1000 |
| Cc1c(-c2cccc(OC(F)F)c2)cc2cnn(-c3ncccn3)c(=O)n12 [1-74] | < 100 |
| Cc1c(-c2cccc3c2CCN3C)cc2cnn(-c3ccccn3)c(=O)n12 [1-64] | < 100 |

| Compound | IC50 [nM] |
| --- | --- |
| Cc1c(-c2cccc(OC(F)F)c2)c(C)n2c(=O)n(-c3ncccn3)ncc12 [1-58] | < 100 |
| Cc1c(C2=CCCCC2)c(C)n2c(=O)n(-c3ccccn3)ncc12 [1-14] | 1000 to 10000 |
| Cc1c(-c2cccc3c2CCCN3C2CC2)c(C)n2c(=O)n(-c3ncccn3)ncc12 [1-121] | 100 to 1000 |
| Cc1ccc(-c2c(C)c3cnn(-c4ncccn4)c(=O)n3c2C)c(C)c1 [1-79] | 1000 to 10000 |
| Cc1c(-c2cccc3c2ccn3C2CC2)c(C)n2c(=O)n(-c3ncccn3)ncc12 [1-96] | < 100 |
| Cc1c(-c2cccc(OC(F)F)c2)c(C)n2c(=O)n(-c3ncc(F)cn3)ncc12 [1-17] | < 100 |
| COc1ccc(F)c(-c2c(C)c3cnn(-c4ncccn4)c(=O)n3c2C)c1 [1-127] | < 100 |
| COc1cccc(-c2c(C)c3cnn(-c4ncccn4)c(=O)n3c2C)c1F [1-133] | 100 to 1000 |
| Cc1c(-c2cccc(N3CCC3)c2)c(C)n2c(=O)n(-c3ncc(OCCN(C)C)cn3)ncc12 [1-43] | 100 to 1000 |
| Cc1c(-c2ccnc(OC(F)F)c2)c(C)n2c(=O)n(-c3ccccn3)ncc12 [1-140] | 100 to 1000 |
| Cc1c(-c2cccc(OC(F)(F)F)c2)c(C)n2c(=O)n(-c3ccccn3)ncc12 [1-38] | 100 to 1000 |
| Cc1c(-c2ccnc(OC(F)F)c2)c(C)n2c(=O)n(-c3ncccn3)ncc12 [1-141] | 1000 to 10000 |
| Cc1c(-c2cccc3c2CCCN3C)cc2cnn(-c3ncccn3)c(=O)n12 [1-89] | < 100 |
| COc1ccc(-c2cc3cnn(-c4ncccn4)c(=O)n3c2C)cn1 [1-144] | 100 to 1000 |
| Cc1c(-c2cccc(N3CCC3)c2)c(C)n2c(=O)n(-c3ccc(Br)cn3)ncc12 [1-26] | 1000 to 10000 |
| Cc1ccc(OC2CC2)cc1-c1c(C)c2cnn(-c3ncccn3)c(=O)n2c1C [1-93] | < 100 |
| Cc1c(OC2CC2)cccc1-c1c(C)c2cnn(-c3ncccn3)c(=O)n2c1C [1-27] | < 100 |
| Cc1c(-c2cccc(OC3CCC3)c2)c(C)n2c(=O)n(-c3ncccn3)ncc12 [1-124] | 100 to 1000 |
| COc1ccc(-c2c(C)c3cnn(-c4ccccn4)c(=O)n3c2C)cn1 [1-129] | < 100 |
| COc1cccc(-c2cc3cnn(-c4ncccn4)c(=O)n3c2C)c1C [1-76] | < 100 |
